Patent US8067422B2, “Crystal form of phenylamino pyrimidine derivatives” (Natco Pharma Limited, priority 2008, dated 2011)
Entries after “also recorded” stand apart in the source; their conditions may differ. Structures can show the parent of a compound that is named as a salt.

What was measured:
[1] = Thermodynamic stability of crystal forms at room temperature; format: physicochemical
Text: This is indicative of the greater stability of the Form-III crystal form.

K562 cells [2] = experiment: Anti-CML activity in nude mice implanted with K562 cells (leukemia growth index); format: in vivo; conditions: ip injections
Text: Nude mice (nu/nu) were implanted with K562 cells (1×10^6) via tail vein.
Blood was drawn via the tail vein. Quantitative analysis of LGI was graphically represented.

K562 cells [3] = experiment: Spleenic enlargement and spleen Crk immunocytochemistry in K562 implanted nude mice; format: in vivo; conditions: ip injections
Experimental: Control mice were sacrificed on day 42 when secondary leukemia symptoms were observed, such as abdominal swelling and lack of circulation in the peripherals causing loss of digits with red spots under the skin surface. Spleen and any secondary tumors were harvested, fixed in formaldehyde and paraffin embedded as per standard protocols. Paraffin section were obtained and processed for immunocytochemistry. The rehydrated sections were treated with 0.3% H2O2 to inactivate any native peroxidases prior to immuno-probing. The sections were blocked with filter sterilized (0.22 μm) 1% BSA-PBS at room temperature for 1 h. Following blocking, the sections were immuno-probed with a human specific anti-Crk monoclonal primary antibody raised in rabbit against a synthetic peptide corresponding to residues in the SH2 domain, near the N-term of human CrkL protein (Abcam, Cambridge, Mass., USA) in 1% BSA-PBS overnight. Secondary antibody (anti-rabbit) conjugated to HRP was used to detect the presence of primary antibody. The sections were briefly rinsed three times in PBS solution after immuno-probing with secondary antibody, and DAB HRP substrate was added per manufacture's instructions (Sigma St Louis Mo. USA). The reaction was allowed to proceed until sharp contrast between positive and negative controls was observed. For negative controls primary antibody were eliminated. Leukemic mice spleen served as positive controls.
Mice were sacrificed after a decrease in LGI was observed and spleen harvested. […] Control mice also developed random subcutaneous tumors showing Crk expression, indicative of the presence of K562 cells.

[4] = test system: K562 luciferase expressing cells; experiment: Leukemic survival study in nude mice implanted with K562 luciferase expressing cells; format: in vivo
Text: K562 luciferase expressing cells were implanted intraperitoneally into nude mice; the mice were scanned using the xenogeny IVIS image station after ip injections of luciferin does determine implantations. Drug treatment was started as in previous studies day 15 after implantation. The animals were given treatment till day 42, after which drug treatment was stopped and survival of the animals determined as per the animal care regulations. […] Drug treatment was withdrawn on day 42 post implantation and survival of animals determined.

[5] = Heat stability of Form-III crystal form (XRPD after heating); format: physicochemical; conditions: for Polymorph form detected after heating: 6 hours, XRPD
Text: Pure Form-III crystal form (1 gm) prepared by the present process was placed in a boiling tube and heated gradually in oil bath. Then the substance was examined by XRPD.

[6] = Stability of Form-III crystal form under accelerated stress conditions in bulk and formulated capsule; format: physicochemical
ZR71 breast cancer cells = experiment: Matrigel invasion assay (modified Boyden chamber), ZR-71; format: cell-based
Experimental: (§1) The in vitro invasiveness of 4910, 5310 and U87 glioma cells and MDAMB231 and ZR71 breast cancer cells in the presence of specified concentrations of compounds were assessed using a modified Boyden chamber assay. Cells were treated with these compounds for 48 h. 1×10^6 cells were suspended in 600 μl of serum-free medium supplemented with 0.2% BSA and placed in the upper compartment of the transwell chambers (Corning Costar Fischer Scientific Cat #07-200-158, Pittsburgh Pa.) coated with Matrigel (0.7 mg/ml). The lower compartment of the chamber was filled with 200 μl of serum medium and the cells were allowed to migrate for 24 h. After incubation, the cells were fixed and stained with Hema-3 and quantified as previously described (Mohanam et al. 1993). The migrated cells were imaged microscopically to determine the reduction in invasiveness induced by the compounds of this invention.

[7] = test system: MDAMB231 breast cancer cells; experiment: Matrigel invasion assay (modified Boyden chamber), MDA-MB-231; format: cell-based
Experimental: as §1

4910 glioma cells = experiment: Matrigel invasion assay (modified Boyden chamber), 4910; format: cell-based, human
Experimental: as §1

5310 glioma cells = experiment: Matrigel invasion assay (modified Boyden chamber), 5310; format: cell-based
Experimental: as §1

U87 glioma cells = experiment: Matrigel invasion assay (modified Boyden chamber), U87; format: cell-based
Experimental: as §1

[8] = test system: 4910 human glioma xenograft cells; experiment: Glioma radiation study, nude mice intracranially implanted with 4910 cells; format: in vivo; conditions: of 10 animals; without radiation; day 40 post implantation
Experimental: Nude mice were intracranially implanted with 4910 human glioma xenograft cells (1×10^6 cells). Ten days after implantation mice were treated with AN019, AN024 or temozolomide with or without radiation (5 Gy/week). The experiment was terminated at day 40 post implantation.

[9] = drug treatment withdrawn on day 42

In the case of `Cc1ccc(NC(=O)c2cc(C(F)(F)F)cc(C(F)(F)F)c2)cc1Nc1nccc(-c2cccnc2)n1` [Form-I, (3,5-bis trifluoromethyl)-N-[4-methyl-3-(4-pyridin-3yl-pyrimidin-2ylamino)-phenyl]-benzamide], the “Stability of crystal form” value [1] is reported as “metastable”.

In the case of `Cc1ccc(NC(=O)c2ccc(CN3CCN(C)CC3)cc2)cc1Nc1nccc(-c2cccnc2)n1` [Imatinib, Imatinib mesylate, reference compound], the “Physiological, phenotypic or behavioral abnormality” value (K562 cells [2]) is reported as “no abnormal physiological, phenotypic or behavioral abnormality”, the “Crk expression in spleen (immunohistochemistry)” value (K562 cells [3]) is reported as “few colonies with low to undetectable expression levels of Crk; also recorded: localized expression regions of Crk expression” and the “Spleenic enlargement (gross observation)” value (K562 cells [3]) is reported as “slight spleenic enlargement”. For the same compound, the “Blast cell count from blood smears, effectiveness after withdrawal of drug treatment” value [4, 9] was “ineffective”, the “Leukemic symptoms after treatment withdrawal” value [4, 9] was “reoccurrences of leukemic symptoms” and the Mortality ([4]; treatment day 15 to day 42, then withdrawn, 10 animals) was “mortality on day 55, 56, 57 and 58”.

With `Cc1ccc(NC(=O)c2cc(C(F)(F)F)cc(C(F)(F)F)c2)cc1Nc1nccc(-c2cccnc2)n1` [Form-II, (3,5-bis trifluoromethyl)-N-[4-methyl-3-(4-pyridin-3yl-pyrimidin-2ylamino)-phenyl]-benzamide] the “Stability of crystal form” value [1] was “metastable”.

In the case of `Cc1ccc(NC(=O)c2cc(C(F)(F)F)cc(C(F)(F)F)c2)cc1Nc1nccc(-c2cccnc2)n1` [Form-III, (3,5-bis trifluoromethyl)-N-[4-methyl-3-(4-pyridin-3yl-pyrimidin-2ylamino)-phenyl]-benzamide], the “Polymorph form detected after heating” value ([5]; 110° C.) is reported as “Form-III”, the “Polymorph form detected after heating” value ([5]; 120° C.) is reported as “Form-III” and the “Polymorph form detected after heating” value ([5]; 130° C.) is reported as “Form-III”. For the same compound, the Heat stability ([5]; heated at 130° C. for 6 hours) was “non-metastable and stable; also recorded: stable to heat”, the “Polymorph content of bulk compound of formula I, polymorph form detected” value (“Polymorph content” below) ([6]; 0 Month at 40 ± 2° C./75 ± 5% RH) was “Form-III” and the “Polymorph content” value ([6]; 1 Month at 40 ± 2° C./75 ± 5% RH) was “Form-III”. The “Polymorph content” value ([6]; 2 Months at 40 ± 2° C./75 ± 5% RH) was “Form-III”, the “Polymorph content” value ([6]; 3 Months at 40 ± 2° C./75 ± 5% RH) was “Form-III” and the “Polymorph content” value ([6]; 6 Months at 40 ± 2° C./75 ± 5% RH) was “Form-III”. The “Stability of crystal form” value [1] was “thermodynamically stable”.

For `Cn1nnc2c(C(N)=O)ncn2c1=O` [Temozolomide], the “±Change in invasion after radiation” value (ZR71 breast cancer cells; ZR-71) was −5%, the “+Radiation % Invasion” value (ZR71 breast cancer cells; ZR-71, with radiation, 48 h treatment) was 65% and the “−Radiation % Invasion” value (ZR71 breast cancer cells; ZR-71, without radiation, 48 h treatment) was 70%. For the same compound, the “±Change in invasion after radiation” value ([7]; MDA-MB-231) was −13%, the “+Radiation % Invasion” value ([7]; MDA-MB-231, with radiation, 48 h treatment) was 49% and the “−Radiation % Invasion” value ([7]; MDA-MB-231, without radiation, 48 h treatment) was 62%. For the same compound, the “±Change in invasion after radiation” value (4910 glioma cells; 4910) was −22%, the “+Radiation % Invasion” value (4910 glioma cells; 4910, with radiation, 48 h treatment) was 73% and the “−Radiation % Invasion” value (4910 glioma cells; 4910, without radiation, 48 h treatment) was 95%. The “±Change in invasion after radiation” value (5310 glioma cells; 5310) was “+13%”, the “+Radiation % Invasion” value (5310 glioma cells; 5310, with radiation, 48 h treatment) was 63% and the “−Radiation % Invasion” value (5310 glioma cells; 5310, without radiation, 48 h treatment) was 50%. For the same compound, the “±Change in invasion after radiation” value (U87 glioma cells; U87) was “+3%”, the “+Radiation % Invasion” value (U87 glioma cells; U87, with radiation, 48 h treatment) was 93% and the “−Radiation % Invasion” value (U87 glioma cells; U87, without radiation, 48 h treatment) was 90%. For the same compound, the “Animals cured / complete absence of intracranial tumours” value [8] was 3 animals.
